# Where a name gives a salt, the structure may show the parent alone.
# Legend:
# [1] = molecular target: T1, human cloned 5-HT6 receptors (Homo sapiens, UniProt P50406); experiment: 5-HT6 binding affinity, [3H]-LSD displacement; conditions: membranes of Hela cells expressing human cloned 5-HT6 receptors; [3H]-LSD 3.0 nM; 120 minutes at room temperature
# T1 construct: expressed in transfected cells; host or cells: HeLa cells
# T1 sequence (P50406 whole entry): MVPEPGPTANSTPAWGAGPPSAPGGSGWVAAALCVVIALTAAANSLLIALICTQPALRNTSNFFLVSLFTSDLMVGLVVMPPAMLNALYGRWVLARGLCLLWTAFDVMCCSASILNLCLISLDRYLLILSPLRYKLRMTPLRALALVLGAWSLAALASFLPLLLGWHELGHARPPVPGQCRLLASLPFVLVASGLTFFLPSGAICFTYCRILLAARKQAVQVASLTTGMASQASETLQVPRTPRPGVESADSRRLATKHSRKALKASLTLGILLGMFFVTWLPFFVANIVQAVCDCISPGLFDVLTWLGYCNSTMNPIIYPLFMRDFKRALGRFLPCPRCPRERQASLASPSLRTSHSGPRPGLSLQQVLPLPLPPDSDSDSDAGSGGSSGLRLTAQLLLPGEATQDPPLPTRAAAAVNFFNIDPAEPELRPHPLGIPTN
SMILES,melting point,Ki [1] [nM]
"CCNCCOc1ccc2c(c1)c(S(=O)(=O)c1cccc3ccccc13)nn2C (as salt: hydrochloride) [Example 44, Ethyl-{2-[1-methyl-3-(naphthalene-1-sulfonyl)-1H-indazol-5-yloxy]-ethyl}-amine]",276 to 277 °C (dec.),
"CC(C)NCCOc1ccc2c(c1)c(S(=O)(=O)c1cccc3ccccc13)nn2C (as salt: hydrochloride) [Example 45, Isopropyl-{2-[1-methyl-3-(naphthalene-1-sulfonyl)-1H-indazol-5-yloxy]-ethyl}-amine]",274 to 276 °C (dec.),
"CC(C)NCCOc1ccc2c(c1)c(S(=O)(=O)c1cccc3ccccc13)nn2Cc1cccc(Cl)c1 (as salt: hydrochloride) [Example 57, {2-[1-(3-Chloro-benzyl)-3-(naphthalene-1-sulfonyl)-1H-indazol-5-yloxy]-ethyl}-isopropyl-amine]",206 to 208 °C,
"CN(C)CCN(C)Cc1ccc2[nH]nc(S(=O)(=O)c3cccc4ccccc34)c2c1 (as salt: hydrochloride) [Example 153, N,N, N′-Trimethyl-N′-{[3-(1-naphthylsulfonyl)-1H-indazol-5-yl]methyl}ethane-1,2-diamine]",> 200 °C,
"CN(C)CCc1cccc2c(S(=O)(=O)c3ccccc3)n[nH]c12 (as salt: hydrochloride) [Example 171, N,N-Dimethyl-N-{2-[3-(phenylsulfonyl)-1H-indazol-7-yl]ethyl}amine hydrochloride]",76 to 80 °C,
"O=S(=O)(c1ccccc1)c1n[nH]c2c(CCNC3CC3)cccc12 (as salt: hydrochloride) [Example 172, N-{2-[3-(phenylsulfonyl)-1H-indazol-7-yl]ethyl}cyclopropanamine hydrochloride]",115 to 117 °C,
"CN(C)CCc1ccc2[nH]nc(S(=O)(=O)c3ccccc3)c2c1 (as salt: hydrochloride) [Example 176, N,N-Dimethyl-N-{2-[3-(phenylsulfonyl)-1H-indazol-5-yl]ethyl}amine hydrochloride]",108 to 110 °C,
"NCCCCc1ccc2[nH]nc(S(=O)(=O)c3ccccc3)c2c1 (as salt: hydrochloride) [Example 181, {4-[3-(Phenylsulfonyl)-1H-indazol-5-yl]butyl}amine hydrochloride]",120 to 125 °C,
"CN(C)CCCc1ccc2[nH]nc(S(=O)(=O)c3ccccc3)c2c1 (as salt: trifluoroacetate) [Example 177, N,N-Dimethyl-N-{3-[3-(phenylsulfonyl)-1H-indazol-5-yl]propyl}amine trifluoroacetate]",75 to 80 °C,
"CC(C)NCCCc1ccc2[nH]nc(S(=O)(=O)c3ccccc3)c2c1 (as salt: trifluoroacetate) [Example 179, N-Isopropyl-N-{3-[3-(phenylsulfonyl)-1H-indazol-5-yl]propyl}amine trifluoroacetate]",169 to 171 °C,
"NCCCc1ccc2[nH]nc(S(=O)(=O)c3ccccc3)c2c1 (as salt: trifluoroacetate) [Example 180, {3-[3-(Phenylsulfonyl)-1H-indazol-5-yl]propyl}amine trifluoroacetate]",92 to 94 °C,
"Cl.NCCc1cccc2c(S(=O)(=O)c3ccccc3)n[nH]c12 [Example 174, {2-[3-(Phenylsulfonyl)-1H-indazol-7-yl]ethyl}amine Hydrochloride]",157 to 160 °C,0.01 to 10
"CNCCc1ccc2[nH]nc(S(=O)(=O)c3ccccc3)c2c1 [Example 175, N-Methyl-N-{2-[3-(phenylsulfonyl)-1H-indazol-5-yl]ethyl}amine]",186 to 188 °C,0.01 to 10
CC(C)NCCCc1ccc2[nH]nc(S(=O)(=O)c3cccc4ccccc34)c2c1 [Example 185],160 to 163 °C,0.01 to 10
CCN(C)CCCc1ccc2[nH]nc(S(=O)(=O)c3cccc4ccccc34)c2c1 [Example 186],205 to 207 °C,0.01 to 10
CCNCCCCc1ccc2[nH]nc(S(=O)(=O)c3cccc4ccccc34)c2c1 [Example 191],140 to 145 °C,0.01 to 10
CC(C)NCCCCc1ccc2[nH]nc(S(=O)(=O)c3cccc4ccccc34)c2c1 [Example 192],145 to 150 °C,0.01 to 10
CCN(C)CCCCc1ccc2[nH]nc(S(=O)(=O)c3cccc4ccccc34)c2c1 [Example 193],195 to 198 °C,0.01 to 10

# The next lines start with the values.
melting point,Ki [1] [nM],SMILES
> 200 °C,,"O=S(=O)(c1cccc2ccccc12)c1n[nH]c2ccc(CN[C@H]3CCNC3)cc12 (as salt: hydrochloride) [Example 154, (3S)—N-{([3-(1-Naphthylsulfonyl)-1H-indazol-5-yl]methyl}pyrrolidin-3-amine Hydrochloride]"
> 200 °C,,"NCCNCc1ccc2[nH]nc(S(=O)(=O)c3cccc4ccccc34)c2c1 (as salt: hydrochloride) [Example 155, N{[3-(1-Naphthylsulfonyl)-1H-indazol-5yl]methyl}ethane-1.2-diamine]"
247 to 248 °C,,"CN(C)CCCc1ccc2[nH]nc(S(=O)(=O)c3cccc4ccccc34)c2c1 (as salt: hydrochloride) [Example 182, N,N-Dimethyl-N-{3-[3-(naphthylsulfonyl)-1H-indazol-5-yl]propyl}amine hydrochloride]"
> 200 °C,,"O=S(=O)(c1cccc2ccccc12)c1n[nH]c2ccc(CN3CCNCC3)cc12 (as salt: hydrochloride) [Example 195, 3-(1-Naphthylsulfonyl)-5-(piperazin-1-ylmethyl)-1H-indazole]"
> 200 °C,,"O=C(c1ccc2[nH]nc(S(=O)(=O)c3cccc4ccccc34)c2c1)N1CCNCC1 (as salt: hydrochloride) [Example 202, 3-(1-Naphthylsulfonyl)-5-(piperazin-1 ylcarbonyl)-1H-indazole]"
155 to 160 °C,0.01 to 10,CNCCCc1ccc2[nH]nc(S(=O)(=O)c3cccc4ccccc34)c2c1 [Example 183]
135 to 138 °C,0.01 to 10,O=S(=O)(c1cccc2ccccc12)c1n[nH]c2ccc(CCCN3CCCC3)cc12 [Example 187]
92 to 94 °C,0.01 to 10,"NCCCc1ccc2[nH]nc(S(=O)(=O)c3cccc4ccccc34)c2c1 [Example 188, {3-[3-(Naphthylylsulfonyl)-1H-indazol-5-yl]propyl}amine]"
232 to 233 °C,0.01 to 10,CN(C)CCCCc1ccc2[nH]nc(S(=O)(=O)c3cccc4ccccc34)c2c1 [Example 190]
238 to 240 °C,11 to 25,O=S(=O)(c1cccc2ccccc12)c1n[nH]c2ccc(CCCCN3CCCC3)cc12 [Example 194]
183 to 185 °C,0.01 to 10,"CC(c1ccc2[nH]nc(S(=O)(=O)c3cccc4ccccc34)c2c1)N1CCN(C)CC1 (stereo not drawn) [Example 203, 5-[1-(4-Methylpiperazin-1-yl)ethyl]-3-(1-naphthylsulfonyl)-1H-indazole]"

# Source: patent US7723329B2, “Substituted-3-sulfonylindazole derivatives as 5-hydroxytryptamine-6 ligands” (Wyeth LLC, priority 2005, dated 2010)
